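Results reflect a 48-hour exposure of cells in 96-well plates to compound at five concentrations. The concentration for 50% growth inhibition is given as GI50.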 Activity calls are given as the source filed them. No stated cut-off is given here; in the data, active = GI50 up to about 1.1 µM and inactive = higher.
Legend:
Test in all cases: growth of human tumour cells (NCI), 48 h
SK-MEL-2 = tested on: SK-MEL-2
A498 = tested on: A498
KM12 = tested on: KM12
HCC 2998 = tested on: HCC 2998
M14 = tested on: M14
TK-10 = tested on: TK-10
NCI-H460 = tested on: NCI-H460
OVCAR-8 = tested on: OVCAR-8
RPMI-8226 = tested on: RPMI-8226
HCT-116 = tested on: HCT-116
SNB-75 = tested on: SNB-75
IGROV-1 = tested on: IGROV-1
786-0 = tested on: 786-0
Malme-3M = tested on: Malme-3M
HT-29 = tested on: HT-29
HL-60 = tested on: HL-60
SK-MEL-5 = tested on: SK-MEL-5
SNB-19 = tested on: SNB-19
OVCAR-5 = tested on: OVCAR-5

SMILES | GI50 (SK-MEL-2) | GI50 (A498) | GI50 (KM12) | GI50 (HCC 2998) | GI50 (M14) | GI50 (TK-10) | GI50 (NCI-H460) | GI50 (OVCAR-8) | GI50 (RPMI-8226) | GI50 (HCT-116) | GI50 (SNB-75) | GI50 (IGROV-1) | GI50 (786-0) | GI50 (Malme-3M) | GI50 (HT-29) | GI50 (HL-60) | GI50 (SK-MEL-5) | GI50 (SNB-19) | GI50 (OVCAR-5)
CCCCNC(=O)OCC(COc1ccccc1OC)OC(=O)NCCCC (configuration not stated) | > 100 µM (inactive) | > 100 µM (inactive) | > 100 µM (inactive) | > 100 µM (inactive) | > 100 µM (inactive) | > 100 µM (inactive) | > 100 µM (inactive) | > 100 µM (inactive) | 95.9 µM (inactive) | > 100 µM (inactive) | 96.6 µM (inactive) | > 100 µM (inactive) | > 100 µM (inactive) | > 100 µM (inactive) | > 100 µM (inactive) | > 100 µM (inactive) | 87.5 µM (inactive) | > 100 µM (inactive) | 
COc1ccc(/C=N/C23CC4CC(CC(C4)C2)C3)cc1 | > 100 µM (inactive) | > 100 µM (inactive) | > 100 µM (inactive) | > 100 µM (inactive) | > 100 µM (inactive) | > 100 µM (inactive) | > 100 µM (inactive) | > 100 µM (inactive) | > 100 µM (inactive) | > 100 µM (inactive) | > 100 µM (inactive) | > 100 µM (inactive) | > 100 µM (inactive) | > 100 µM (inactive) | > 100 µM (inactive) | > 100 µM (inactive) | > 100 µM (inactive) | > 100 µM (inactive) | > 100 µM (inactive)
CCCCN(CCCC)C(=O)C(=O)CC(=O)/C=C/c1ccccc1 | > 100 µM (inactive) | > 100 µM (inactive) | > 100 µM (inactive) | > 100 µM (inactive) | > 100 µM (inactive) | > 100 µM (inactive) | > 100 µM (inactive) | > 100 µM (inactive) | > 100 µM (inactive) | > 100 µM (inactive) | > 100 µM (inactive) | > 100 µM (inactive) | > 100 µM (inactive) | > 100 µM (inactive) | > 100 µM (inactive) | > 100 µM (inactive) | > 100 µM (inactive) | > 100 µM (inactive) | > 100 µM (inactive)
CS(=O)(=O)NNS(=O)(=O)c1cccc([N+](=O)[O-])c1 | > 100 µM (inactive) | > 100 µM (inactive) | > 100 µM (inactive) | > 100 µM (inactive) | > 100 µM (inactive) | > 100 µM (inactive) | > 100 µM (inactive) | > 100 µM (inactive) | > 100 µM (inactive) | > 100 µM (inactive) | > 100 µM (inactive) | > 100 µM (inactive) | > 100 µM (inactive) | > 100 µM (inactive) | > 100 µM (inactive) | > 100 µM (inactive) | > 100 µM (inactive) | > 100 µM (inactive) | 
C/C(CC(=O)Nc1ccc(C)c(C)c1)=N\N(c1ccccc1)c1ccccc1 | 55.6 µM (inactive) | > 100 µM (inactive) | > 100 µM (inactive) | > 100 µM (inactive) | > 100 µM (inactive) | > 100 µM (inactive) | > 100 µM (inactive) | > 100 µM (inactive) | 47.1 µM (inactive) | 43.4 µM (inactive) | 65.9 µM (inactive) | 64.4 µM (inactive) | 99.1 µM (inactive) | > 100 µM (inactive) | > 100 µM (inactive) | 88.1 µM (inactive) | 62.7 µM (inactive) | > 100 µM (inactive) | > 100 µM (inactive)
CC1(O)C(C)(O)C(C)(O)C1(C)O (configuration not stated) | > 100 µM (inactive) | > 100 µM (inactive) | > 100 µM (inactive) | > 100 µM (inactive) | > 100 µM (inactive) | > 100 µM (inactive) | > 100 µM (inactive) | > 100 µM (inactive) |  | > 100 µM (inactive) | > 100 µM (inactive) | > 100 µM (inactive) | > 100 µM (inactive) | > 100 µM (inactive) | > 100 µM (inactive) | > 100 µM (inactive) | > 100 µM (inactive) | > 100 µM (inactive) | > 100 µM (inactive)
CCOc1ccc(NC(=O)/C(=C\c2ccc(C)cc2)C(C)=O)cc1 | > 100 µM (inactive) | > 100 µM (inactive) |  | > 100 µM (inactive) | > 100 µM (inactive) | > 100 µM (inactive) |  | > 100 µM (inactive) | > 100 µM (inactive) | > 100 µM (inactive) | > 100 µM (inactive) | > 100 µM (inactive) | > 100 µM (inactive) | > 100 µM (inactive) | > 100 µM (inactive) | < 0.01 µM (active) | > 100 µM (inactive) | > 100 µM (inactive) | > 100 µM (inactive)
CC1(C)CCc2cc3c(cc2O1)OCCC3=O |  | > 100 µM (inactive) | > 100 µM (inactive) | > 100 µM (inactive) | > 100 µM (inactive) | > 100 µM (inactive) | > 100 µM (inactive) | > 100 µM (inactive) | 96.2 µM (inactive) | > 100 µM (inactive) | > 100 µM (inactive) | > 100 µM (inactive) | > 100 µM (inactive) | > 100 µM (inactive) | > 100 µM (inactive) | 95.1 µM (inactive) | > 100 µM (inactive) | > 100 µM (inactive) | > 100 µM (inactive)
CC(=O)OC1COC(n2c(=S)n(-c3ccccc3)c(=O)c3cc(Br)ccc32)C(OC(C)=O)C1OC(C)=O (configuration not stated) | 45.1 µM (inactive) | 49.4 µM (inactive) | > 100 µM (inactive) | > 100 µM (inactive) | 30.8 µM (inactive) |  | 65.2 µM (inactive) | 36.1 µM (inactive) | 33.9 µM (inactive) | 23.9 µM (inactive) | 7.11 µM (inactive) | 45.1 µM (inactive) | 34.1 µM (inactive) | 35.4 µM (inactive) | 72.1 µM (inactive) | > 100 µM (inactive) | 54.8 µM (inactive) | 25.2 µM (inactive) | > 100 µM (inactive)
CCOC(=O)N1CCc2cc(OC)c(OC)cc2/C1=C\c1ccc(OC)c(OC)c1 | 12.1 µM (inactive) | 23.2 µM (inactive) | 29.6 µM (inactive) | 33.3 µM (inactive) | > 10 µM (inactive) | 25.2 µM (inactive) |  | 30.1 µM (inactive) | 24.4 µM (inactive) | 21.9 µM (inactive) | 27 µM (inactive) | 45.5 µM (inactive) | 19.9 µM (inactive) | 20.2 µM (inactive) | 19 µM (inactive) | 19.5 µM (inactive) |  | 39.2 µM (inactive) | 38.3 µM (inactive)
NC(CCc1ncc(C(=O)O)s1)C(=O)O (configuration not stated) |  | > 100 µM (inactive) | > 100 µM (inactive) | > 100 µM (inactive) | > 100 µM (inactive) | > 100 µM (inactive) | > 100 µM (inactive) | > 100 µM (inactive) | > 100 µM (inactive) | > 100 µM (inactive) | > 100 µM (inactive) | > 100 µM (inactive) | > 100 µM (inactive) | > 100 µM (inactive) | > 100 µM (inactive) |  | > 100 µM (inactive) | > 10 µM (inactive) | 

— ChEMBL document CHEMBL1201862, “PubChem BioAssay data set” (2004)
